Source: PubChem BioAssay (NCI)
Several values for one entry are separate records, joined by “and”; a condition that tells them apart may be missing. Identical values can stand only once.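 Exposure lasted 48 hours, with cells grown in 96-well plates and compounds tested at five concentrations. At the GI50, growth is halved. The concentration for full growth arrest is given as TGI.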

Assays:
Assay in all cases: DTP human tumour cell line panel, 48 h
[1] = test system: COLO 205 colon
[2] = test system: DU-145 prostate
[3] = test system: HCC-2998 colon
[4] = test system: HCT-116 colon
[5] = test system: HS 578T breast
[6] = test system: MDA-MB-231 breast
[7] = test system: MDA-MB-435
[8] = test system: NCI-H23 lung
[9] = test system: SF-268 CNS
[10] = test system: TK-10 renal

Row | Compound | GI50 [1] | TGI [1] [µM] | GI50 [2] | TGI [2] [µM] | GI50 [3] | TGI [3] [µM] | GI50 [4] | TGI [4] [µM] | GI50 [5] | TGI [5] [µM] | GI50 [6] | TGI [6] [µM] | GI50 [7] | TGI [7] [µM] | GI50 [8] [µM] | TGI [8] [µM] | GI50 [9] | TGI [9] [µM] | GI50 [10] | TGI [10] [µM]
1 | CCC(=O)Nc1ccccc1C#C/C=C\C#Cc1ccccc1C(F)(F)F | 4.59 µM | > 25.9 | 2.28 µM | 22.3 | 4.19 µM | 14.9 | 2.81 µM | 25.8 | 1.35 µM | 9.19 | 3.13 µM | > 29.3 | 0.851 µM | 1.84 | 5.27 | > 50 | 3.21 µM | 35.3 | 4.46 µM | > 50
2 | Cc1cc(C(=O)NC(CCC(=O)O)C(=O)O)sc1CCC1CNc2nc(N)[nH]c(=O)c2C1 (stereo not given) | 0.0341 µM and 0.0509 µM | > 100 | < 0.0158 µM and 0.0407 µM | > 100 | 0.0677 µM and 0.323 µM | > 100 | < 0.0198 µM and 0.0357 µM | > 100 | 2.13 µM and 8.89 µM | > 100 | 6.72 µM and 12.8 µM | > 100 | 0.0354 µM and 0.0542 µM | > 100 | – | > 100 | 0.044 µM and 0.0721 µM | > 100 | 0.0355 µM and 0.065 µM | > 100
3 | COc1cc(N2CCN(C(C)C)CC2)ccc1Nc1nc(Nc2cccc(F)c2C(=O)O)c2cc[nH]c2n1 | > 25 µM | > 25 | > 25 µM | > 25 | > 25 µM | > 25 | > 25 µM | > 25 | > 25 µM | > 25 | > 25 µM | > 25 | > 25 µM | > 25 | > 25 | > 25 | > 25 µM | > 25 | > 25 µM | > 25
4 | COc1cc2ncnc(Nc3ccc4c(cnn4Cc4ccccc4)c3)c2cc1OC | > 25 µM | > 25 | > 25 µM | > 25 | > 25 µM | > 25 | > 21.3 µM | > 25 | > 21 µM | > 25 | 7.13 µM | > 25 | > 25 µM | > 25 | > 25 | > 25 | > 25 µM | > 25 | 0.131 µM | > 25
5 | CN1CCN(c2nc(NCCCNc3ccnc4cc(Cl)ccc34)c3ccccc3n2)CC1 | 1.86 µM | 4.51 | 6.11 µM | 18.4 | 3 µM | 12.5 | 3.3 µM | 12.1 | 3.35 µM | 19 | 2.76 µM | 8.94 | 2.09 µM | 4.33 | 10.6 | 24 | 4.71 µM | 19.2 | 10.8 µM | 26.2
6 | C[C@]1(Cn2ccnn2)C(C(=O)O)N2C(=O)CC2S1(=O)=O (stereo not given in full) | > 100 µM | > 100 | > 100 µM | > 100 | > 100 µM | > 100 | > 100 µM | > 100 | > 100 µM | > 100 | > 100 µM | > 100 | > 100 µM | > 100 | > 100 | > 100 | > 100 µM | > 100 | > 100 µM | > 100
7 | Cc1ccc(C2=C(c3ccc(C)cc3)C3(c4ccc(C)cc4)C4C(=O)c5ccccc5C(=O)C4C2(c2ccc(C)cc2)S3=O)cc1 (stereo not given) | > 100 µM | > 100 | > 100 µM | > 100 | > 100 µM | > 100 | > 100 µM | > 100 | > 100 µM | > 100 | 60 µM | > 100 | > 100 µM | > 100 | > 100 | > 100 | > 100 µM | > 100 | > 100 µM | > 100
8 | Cc1[nH]c(-c2nc3ccccc3[nH]2)c(C)c1C(=O)NC(C)C1CCCCC1 (stereo not given) | 18.3 µM | 58 | 14.6 µM | 28.2 | 13.6 µM | 34.6 | 10.1 µM | 24.2 | 8.88 µM | 30.9 | 10.4 µM | 29.4 | 2.29 µM | 5.85 | 12.6 | 31.5 | 11.9 µM | 30.9 | 21.5 µM | 41.6
9 | O=c1c(Br)cc2c(-c3ccccc3)c3cc(Br)c(O)c(Br)c3oc-2c1Br | – | > 100 | – | > 100 | – | > 100 | – | > 100 | – | > 100 | – | > 100 | – | > 100 | – | > 100 | – | > 100 | – | > 100
10 | CCCCNC(=O)c1cc(NCc2cc(O)ccc2O)ccc1O | 17 µM | 36.9 | 15.9 µM | 29.6 | 17.6 µM | 35.5 | 18.8 µM | 37.5 | 24.8 µM | > 100 | 7.41 µM | 21.7 | 17.7 µM | 39.5 | 17.1 | 40.5 | 10.3 µM | 23.6 | 22.6 µM | 37.6
11 | N#Cc1c(N)nc(N)nc1N[C@H](c1nc2c(F)ccc(Cl)c2c(=O)n1-c1cccnc1)C1CC1 | 8.74 µM | 25.8 | 11 µM | > 100 | 12.7 µM | 28.4 | 11.6 µM | 27.3 | 2.53 µM | 57.7 | 11.8 µM | 36.3 | 13 µM | 34.4 | 21.8 | > 100 | 12.3 µM | > 100 | 1.92 µM | 15.6
12 | CN(C)CC(C(=O)Cc1ccccc1)c1ccccc1 (stereo not given) | 2.3 µM | 5.04 | 1.73 µM | 4.72 | 15.9 µM | 30.3 | 1.72 µM | 3.3 | 3.16 µM | 9.83 | 3.48 µM | 11 | 3.09 µM | 12.2 | 12.2 | 30.5 | 8.25 µM | 22.6 | 1.56 µM | 3.1
13 | CCc1cc2ncc(CN3CCN(c4ccc(C(=O)NC)nc4)CC3)cc2[nH]c1=O | > 100 µM | > 100 | > 100 µM | > 100 | 87.9 µM | > 100 | 59.6 µM | > 100 | 64 µM | > 100 | 82 µM | > 100 | 85.8 µM | > 100 | 53.5 | > 100 | > 100 µM | > 100 | 43.1 µM | > 100
14 | CCN(CC)CCN(Cc1ccc(F)cc1)c1ccc(CO)c(Cl)c1 | 2.2 µM | 5.54 | 9.97 µM | > 73.8 | 3.09 µM | 12.8 | 3.55 µM | > 50.1 | 48.3 µM | > 100 | 12.2 µM | 54.2 | 23.5 µM | 74.7 | 35.4 | > 100 | 76.5 µM | > 100 | 4.86 µM | 22.2
15 | C/C=C/[C@H]1O[C@@H]2C(=C[C@H]1O)C(=O)O[C@H]2C | 4.02 µM | > 32.1 | 5.76 µM | 21.4 | 27.9 µM | 55.9 | 4.19 µM | 16.7 | 23.3 µM | 49.8 | 17.3 µM | 34.2 | 21.9 µM | 43.5 | 16.4 | 44.2 | 30.1 µM | > 95 | 14.9 µM | 33
16 | CCOC(=O)c1c(C)nc2c(c1N)CC(=O)N2CCc1ccccc1 | 0.518 µM | 13.6 | 0.881 µM | 16 | 3.49 µM | 12.8 | 0.32 µM | 11.2 | 12.4 µM | 62.3 | 0.896 µM | 14 | 0.354 µM | 15.4 | 5.46 | 23 | 0.477 µM | 19 | 0.596 µM | 15
17 | C/C(=N\NC(=S)N1CC2CCC(CC2)C1)c1cccc(C)n1 | 0.000385 µM | 11.1 | 0.378 µM | 7.1 | – | 19.1 | – | 2.78 | – | 27 | – | 17.8 | – | 19.6 | – | 19.4 | – | 13 | 0.786 µM | 16.1
18 | Cn1c2ccccc2c2c3[nH][nH]c(=O)c3c3c4ccccc4[nH]c3c21 | 4.74 µM | 21 | 2.45 µM | 29.1 | 2.74 µM | 8.1 | 1.32 µM | 92.5 | 0.993 µM | 5.88 | 1.39 µM | 46.1 | 2.03 µM | 11.1 | 1.85 | 8.37 | 2.62 µM | 14.4 | 4.74 µM | 57.2
19 | Cc1ccc(C2=Nc3c(N)ncnc3NC(c3ccc4c(c3)OCO4)C2)cc1 (stereo not given) | 3.47 µM | 21.7 | 4.52 µM | 14.7 | 6.3 µM | 67.1 | – | – | 7.28 µM | 40 | 4.37 µM | 19.5 | 1.15 µM | 4.12 | 10.2 | 63.3 | 4.06 µM | 16.3 | 4.47 µM | 21.1
